Data on 2 substances can be found in patent publication US20170088584A1, “USE OF […] DRUGS FOR OS[…] AND BONE REGENERATION” (UNIVERSIDAD NACIONAL AUTONOMA DE MEXICO, priority 2015, published 2017).

In data set [1] the test system is Human Osteoblasts derived from alveolar bone. Nature of the data set: MTT cytotoxicity and cell proliferation assay. It is filed as cell-based. Particulars: 5 μg/ml, 4 days, medium with 0.5% fetal bovine serum. On the procedure: The cytotoxic effect and the effect on cell proliferation was assessed by means of the MTT colorimetric assay (tetrazolium) [3-(4,5-dimethylthazol-2-yl)-2,5-diphenyl tetrazoliumbromide], during 1, 2, 3 and 4 days. Human Osteoblasts derived from alveolar bone were planted at a density of 1×10^4 in plates of 96 wells. The cells were treated with the peptides (independently) for 4 days with concentrations of 1, 3 and 5 μg/ml of each of the peptides. The medium was replaced daily, and the peptides administered in the same way. The controls used were medium with fetal bovine serum at 10% (positive control) and medium with fetal bovine serum at 0.5% (negative control.) the peptides were administered at the various concentrations contained in the medium at 0.5%. At the end of each day of treatment, 10 μL of MTT (3-(4,5-dimethylthiazol-2-yl)-2,5-diphenyltetrazolium bromide) solution (5 mg/mL) was added to the wells and incubated for 3 hours. At the end the supernatant was removed and extraction was carried out by means of DMSO for 1 hour at 37° C. The optical density of the supernatant was read in a reader for ELISA at 570 nm. The optical density reflects the number of living cells present in the culture. […] The peptide […] (SEQ ID NO: 2) at a 5 μg/ml concentration promotes cell proliferation to a 92% with respect to the positive control (10% fetal bovine serum) (B).

For data set [2], the system named is ovariectomized Wistar rats with osteoporosis. Description: bone microarchitecture by histology (Masson's trichrome) and μCT, ovariectomized osteoporotic rat model. Particulars: 20-50 μg/kg i.p. daily 90 days; for μCT three-dimensional reconstruction of 5th lumbar vertebra / histology of femur epiphysis microarchitecture: 5 months after ovariectomy; for histology of femur epiphysis microarchitecture: Masson's trichrome; for histology of the body of the 5th lumbar vertebra: transverse and sagittal planes. It is filed as in vivo, Wistar rats (Rattus norvegicus). On the procedure:
In FIGS. 5 and 6 histological sections of 5 μm thick and stained with Masson's Trichromic stain may be observed in which the microarchitecture of the epiphysis of the femur of the Wistar rats is analyzed in detail. Letter (A) of both figures corresponds to the group with no treatment which is the healthy control group. In the histological section stained with Masson's Trichromic stain, normal microarchitecture of the femoral epiphysis is observed with the cancellous bone and medullar spaces filled with bone marrow and bone occupying inter-medullar spaces. The epiphyseal plate and articular cartilage are also observed. […] Treatment with the vehicle lasted 90 days. […] These spaces have variable sizes. Articular cartilage and epiphyseal plate are also noted. […] Microphotography showing the microarchitecture of the femur epiphysis of Wistar rats. […] Articular cartilage and epiphyseal plate are also observed.
In FIGS. 7 and 8, microphotographs of histological sections of 5 μm thick of the 5th lumbar vertebra in the transverse and sagittal plane stained with Masson's Trichromic stain. Panel (A) of FIGS. 7 and 8 corresponds to the body of the 5th lumbar vertebra in the transverse (a) and sagittal (a′) planes of normal Wistar rats where cortical bone, bone trabeculate and spaces filled with bone marrow may be observed. Panel (B) of FIGS. 7 and 8 corresponds to the body of the 5th lumbar vertebra in the transverse (b) and sagittal (b′) planes of osteoporotic Wistar rats treated with physiological saline solution where cortical bone and bone trabeculate are observed with lesser width than the one of healthy Wistar rats. Medullar spaces are also observed and they are filled with fatty tissue with larger areas than those found in healthy controls.
(§1) We used 48 female rats of the Wistar strain, 3 months of age, with a weight of 250±20 gr. The animals were acclimated for 14 days at an ambient temperature of 22° C. with a photoperiod of 12 hours and relative humidity of 50%; food and water were ad libitum. The rats were sedated with acepromazine maleate (Relax 0.5 g/100 ml) at a dose of 20 μg/Kg of weight and as general anesthetic, tiletamine and zolazepam were used at a concentration of 25 mg/kg of weight.
Anesthetic maintenance was performed with constant flow of isoflurane. Once the rats were anesthetized we proceeded to perform the bilateral ovariectomy procedure for what the anesthetized rat was placed in lateral decubitus and shaved from the last rib forming a rectangle of approximately 4×3 cm. This area is disinfected with an electrolyzed super oxidant solution with neutral pH (Veteribac). Then a linear incision of approximately 2 cm up was performed with a scalpel to reach the muscle and expose the abdominal cavity. With extreme care, the cervix was located and identified. The cervix was ligated exactly on its middle portion with 6/0 polyglycolic acid sutures and subsequently the ovaries were eliminated with a scalpel. It was sutured by planes (abdominal muscles and skin) with 4/0 polyglycolic acid sutures and finally, the surgical area was cleaned with hydrogen peroxide. The rats were maintained in vivarium conditions during 5 months with 12 hours of light and 12 hours of darkness, at an average temperature of 22° C. with food and water ad libitum. […] Once this period concluded, 32 ovariectomized rats were divided into 4 groups of 8 rats each. […] The control group of osteoporotic rats […] was treated with physiological saline solution (pH 7.4) for 90 days. The healthy control group (16) rats received no treatment at all. Blood was obtained from all groups at the beginning and end of treatment (90 days). The 5th dorsal vertebra of the rats was analyzed by means of computed micro tomography (μCT) prior to euthanasia with CO2 on day 90 of treatment. The femur and 5th dorsal vertebrae were obtained, fixed in 10% paraformaldehyde and embedded in paraffin. […]

Data set [3] deals with critical-size calvarial defect in Wistar rats. Nature of the data set: regeneration of critical-size calvarial defect with peptide in gelatin sponge scaffold. The data set is classed as in vivo. Conditions: 20-50 μg peptide per gelatin sponge (Gelfoam) disk, 9 mm defect, after 16 weeks. The text has this: These peptides have been artificially synthesized and then combined with a three-dimensional scaffold made of gelatin (gelatin sponge), thus it was used for regeneration of critical size bone defects in an animal model: two groups of 14 male Wistar rats of approximately 250±20 grams of weight were used. Anesthesia of the rats was achieved through intraperitoneal injection of ketamine. The critical size defect was done by performing a 3 cm incision in the calvarial bone and then lifting a mucoperiostial flap. Subsequently, with a 9 mm trephine, a defect was created in the rat's calvarial bone. In the experimental group the formulation was introduced. It consisted of a 9 mm-diameter, porous, three-dimensional, gelatin-based (Gelfoam) disk containing the peptide at a concentration of 20-50 μg/disk. Previously, the dimensional scaffold (gelatin sponge) was incubated with a concentration of the corresponding peptide at 20-50 μg/disk of gelatin sponge and was vacuum dried. Control animals were treated only with a disk of gelatin sponge and a vehicle for re-suspension of the peptide (phosphate buffer pH 7.4) and another group remained without treatment. Blood supply is ensured at the surgical site. The operation site was sealed with Satin S-100, which consists primarily in gelatin. At the end of 16 weeks, the tissues were fixed with 10% formaldehyde and embedded in paraffin. […]

The test system of data set [4] is ovariectomized Wistar rats with osteoporosis. Nature of the data set: resistance to compression of the 5th lumbar vertebra, ovariectomized osteoporotic rat model. The data set is classed as in vivo, Wistar rats (Rattus norvegicus). Particulars: 20-50 μg/kg i.p. daily for 90 days, started 5 months after ovariectomy; end of treatment. How it is done: FIG. 12 corresponds to a graph showing the resistance to compression of the vertebral body of the 5th lumbar vertebra obtained from Wistar rats at the end of the 90-day experimental period, 5 months after ovariectomy. Resistance Tests were performed using an Inströn Universal Testing Machine (mod. 5567) in the body of the 5th lumbar vertebra compressed at a speed of 1 mm/min up to achieve sample fracture. The exerted force is expressed in N/mm^2. […].
as §1
Anesthetic maintenance was performed with constant flow of isoflurane. Once the rats were anesthetized we proceeded to perform the bilateral ovariectomy procedure for what the anesthetized rat was placed in lateral decubitus and shaved from the last rib forming a rectangle of approximately 4×3 cm. […] The 5th dorsal vertebra of the rats was analyzed by means of computed micro tomography (μCT) prior to euthanasia with CO2 on day 90 of treatment. […]

The nature of data set [5]: biodistribution of peptide marked with pertechnetate (99mTc). It is filed as in vivo, Wistar rats. On the procedure:
To determine the bio distribution of the peptides object of this invention, they were marked using technetium in the form of pertechnetate (TcO4−). In order to perform the marking, a working solution which contained: 40 ug of the peptides object of this invention, 50 ul of tartrate (2 mg/ml of acetate buffer pH5), 10 μl of SnCl2 (2 mg/ml 0.1 N HCl), 50 μl of gentisic acid (1 mg/ml) and 50 μl of 99m Tc—Na TCO4− (5 mCi) was prepared. Male Wistar rats of 250 g of weight which were at a temperature of 22° C. with a photoperiod of 12 hours and relative humidity at 50% were used. Food and water was ad libitum. To assess bio distribution, groups of three rats were formed and injected intraperitoneally with 40 μl of the marked peptide. They were sacrificed by an overdose of anesthetic at 30’, 1, 3, 6 and 24 hours. Blood samples from the heart, lung, liver, spleen, kidneys, stomach, small intestine, large intestine, muscle, bone, thyroid, brain and tooth were collected. These organs were weighed on an analytical balance and subsequently placed in a NaI(TI) solid scintillation counter to detect the activity of each one of the organs. With this procedure, the percentage of the injected dose per gram of tissue (% ID/g) was obtained.

The subject of data set [6] is ovariectomized Wistar rats with osteoporosis. Nature of the data set: histology of liver, kidney, heart, lung, brain, spleen, muscle after 90 days of peptide administration. The data set is classed as in vivo, Wistar rats (Rattus norvegicus). Particulars: 20-50 μg/kg i.p. for 90 days. How it is done: The control tissues in Panel (A) correspond to: normal tissues: L=liver, K=kidney, H=heart, Lu=lung, B=brain, M=muscle, S=spleen. Panel B) tissues of Wistar rats with osteoporosis treated with the pharmaceutical formulations object of this invention; L=liver, K=kidney, H=heart, Lu=lung, B=brain, S=Spleen M=muscle. […] This means that the synthetic peptides are harmless drugs for osteoporosis treatment, producing no adverse or secondary reactions at cellular or tissue level.

Entries after “also recorded” stand apart in the source; their conditions may differ.

For the substance MGTSSTDSQQAQHRRCSTSN, in data set [1], the “cell proliferation with regard to the positive control (10% fetal bovine serum)” value is recorded as 92%. The “μCT three-dimensional reconstruction of 5th lumbar vertebra” value in data set [2] was “cancellous bone is present in almost the entire vertebral body”. For the same substance, the “histology of femur epiphysis microarchitecture” value in data set [2] is “bone trabeculae forms a network structure similar to the microarchitecture of healthy control group; also recorded: full medullar spaces without evidence of osteoporotic spaces and with normal bone microarchitecture”. In addition, the “histology of the body of the 5th lumbar vertebra” value in data set [2] is “cortical bone is observed similar to that of healthy Wistar rats”. Also, the “filling of the critical-size calvarial defect with bone” value in data set [3] was determined as 100%. Besides, in data set [4], the “resistance to compression of 5th lumbar vertebra, difference compared to healthy control” value is recorded as 19%. Further, the “percentage of injected dose per gram of tissue (% ID/g)” value in data set [5] (bone, 30′) came to 1.3%; in data set [5] (bone, 1 hour), 1.4%; in data set [5] (bone, 24 hours), 0.4%; in data set [5] (kidney, 1 hour) it was 1.6%; in data set [5] (kidney, 3 hours), 2.6%; in data set [5] (kidney, 6 hours) it was 1.3%. Also, the “percentage of injected dose per gram of tissue (% ID/g)” value in data set [5] (kidney, 24 hours) is given as 0.9%; in data set [5] (large intestine, 30′ after i.p. injection), 3.6%; in data set [5] (large intestine, 24 hours) it was 0.006%; in data set [5] (liver, 1 hour), 3.4%; in data set [5] (liver, 24 hours) it was 0.2%. In addition, in data set [6], the “histological alteration of liver, kidney, heart, lung, brain, spleen, muscle” value is “no histological feature that indicates that peptide administration in physiological saline solution causes microscopic alteration in these tissues”.
In the case of AVIFM, the “cell proliferation with regard to the positive control (10% fetal bovine serum)” value in data set [1] amounted to 82%. Also, in data set [2], the “μCT three-dimensional reconstruction of 5th lumbar vertebra” value is reported as “cancellous bone is present in almost the entire vertebral body”; the “histology of femur epiphysis microarchitecture” value is “bone trabeculae forms a network structure similar to the microarchitecture of healthy control group; also recorded: full medullar spaces without evidence of osteoporotic spaces and with normal bone microarchitecture”; the “histology of the body of the 5th lumbar vertebra” value is “cortical bone is observed similar to that of healthy Wistar rats”. Besides, in data set [3], the “filling of the critical-size calvarial defect with bone” value came to 100%. For the same substance, the “resistance to compression of 5th lumbar vertebra, difference compared to healthy control” value in data set [4] stood at 2%.
